Data: patent publication US5747535A, “Selective thrombin inhibitors” (priority 1995, dated 1998)
Read-outs that look alike come from different tables or passages of the source.

Key:
[1] = human being; Osamu et al. 1986; cited from earlier work
[2] = molecular target: T1, bovine thrombin (Bos taurus, UniProt P00735); conditions: for Ki: read-out: Inhibitory activity for thrombin, Ki, bovine thrombin, pH 7.8, initial velocity, reaction started with enzyme;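 on all read-outs here: bovine thrombin cleaving the chromogenic substrate Chromozym TH, with para-nitroaniline release tracked as absorbance change over time to give initial rates, in Tris buffer at pH 7.8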
Text: (§1) The thrombin inhibitory effect of the compound of formula (I) according to the present invention can be identified by determination of a dissociation constant Ki represented by the following equation according to the known method described in literature [see, Methods in enzymology V. 80,p341-361;Biochemistry 27,p2144-2151 (1988)].
(§2) The dissociation constant Ki denotes the degree of dissociation of the enzyme-thrombin inhibitor complex. […] Such dissociation constant can be determined by reacting thrombin with a certain substrate which develops a color when it is hydrolyzed by the action of thrombin, and then measuring the degree of color development as a function of time by means of spectrophotometry.
(§3) Chromozym TH is hydrolyzed by thrombin to produce yellow para-nitroaniline. Accordingly, the amount of yellow para-nitroaniline thus produced can be measured as the change of absorbance in the course of time to determine the thrombin inhibitory activity of the compound according to the present invention. That is, the enzyme activity can be determined from the rate of change in absorbance and then can be directly connected with the ability of the thrombin inhibitor to inhibit the enzyme activity (see, Methods in Enzymology, V. 80,p341-361,Biochemistry 27, p2144-2151, 1988).
(§4) The ability of the compound according to the present invention to inhibit the thrombin activity was determined as described in the following.
(§5) 1160 μl of 0.1M tris buffered solution (pH 7.8) containing 150 mM NaCl and 0.1% PEG 8000 (polyethylene glycol, molecular weight about 8,000) was added to a 1.5 ml cuvette. Chromozym TH was dissolved in dimethylsulfoxide(DMSO) in the concentration of 10mM and the resulting solution was diluted with the said tris buffered solution to the concentration of 0.1 mM, which was then used as the substrate solution. 225 μl of 0.1 mM substrate solution thus prepared was added to the cuvette. The inhibitor solution was prepared by dissolving the thrombin inhibitor compound according to the present invention in dimethylsulfoxide in the concentration of 10 mg/ml and then diluting the resulting solution with the said tris buffered solution to the concentration of 0.1 mg/ml, 0.01 mg/ml, 0.001 mg/ml and 0.0001 mg/ml. The resulting inhibitor solution was taken in an amount corresponding to 0 to 10 μg as the inhibitor and then diluted with tris buffered solution to make the total volume of 100 μl which was added to the cuvette.
(§6) 15 μl of bovine thrombin solution dissolved in above tris buffered solution in the concentration of 0.1 mg/ml was added to the cuvette to initiate the enzyme hydrolysis reaction. The amount of para-nitroaniline produced for 2 minutes from the moment the enzyme is added was monitored by measuring the absorbance at 381 nm. The continuous spectrum of absorbance to reaction time was depicted. The same experiments were conducted for various concentration of the inhibitor to obtain the continuous spectrum.
(§7) In each spectrum, the initial velocity Vi was obtained from the slope within initial 30 seconds of the reaction time and then a graph for the reciprocal value of initial velocity(1/Vi) to the inhibitor concentration was depicted. From the graph, the primary equation satisfying the points depicted thereon was obtained and then the value Ki was calculated from the x intercept of the primary equation using the enzyme reaction equation.
(§8) The velocity constant Ks was obtained using the same solution in the same concentration as in determination of the value Ki but using the following experimental procedure.

[3] = molecular target: T2, trypsin (Bos taurus, UniProt P00760); assay: biochemical; type: biochemical; conditions: 20 μM substrate; read-out: Inhibitory activity for trypsin, Ki
T2 sequence (P00760 24-246): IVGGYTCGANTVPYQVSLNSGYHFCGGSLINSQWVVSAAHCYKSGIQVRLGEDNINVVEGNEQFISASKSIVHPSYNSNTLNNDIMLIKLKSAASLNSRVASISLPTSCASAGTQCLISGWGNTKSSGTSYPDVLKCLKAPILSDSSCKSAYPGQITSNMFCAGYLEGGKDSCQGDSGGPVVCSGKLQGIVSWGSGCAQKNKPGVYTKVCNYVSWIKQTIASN
Experimental: To identify the selectivity for thrombin over trypsin of the compound of the present invention, the inhibitory activity for trypsin of the compound of formula (I) is measured as Ki value according to the same method as the above method for determination of thrombin inhibitory activity, and then the ratio of the activity for trypsin to the activity for thrombin is calculated. In this case, the procedure for determination of inhibitory activity for trypsin is substantially identical to that for thrombin, except that N-benzoyl-Val-Gly-Arg para-nitroanilide hydrochloride is used as the substrate.
As the substrate 20μM solution of N-benzoyl-Val-Gly-Arg-p-nitroanilide hydrochloride was used, and the inhibitor was used in various concnetrations within the range of […]. In addition, trypsin was dissolved in 0.1N HCl, adjusted to the concentration of 45 μg/ml with the said tris buffered solution just before the experiment, and then used in an amount of 40μl. As in the experiment for thrombin, a total volume of the reaction solution was 1.5 ml and the remaining procedure was conducted in the same manner.

[4] = molecular target: T1, bovine thrombin; assay: biochemical
Text: as §1, §2, §3, §4, §5, §6, §7, §8

[5] = system: thrombin over trypsin; conditions: cited from earlier work
[6] = literature, cited from earlier work

Ki [3] [nM] | Ki [4] [nM] | Molecule | Ki [2] [nM] | further results
 |  | CC1CNc2c(cccc2S(=O)(=O)N[C@@H](CCCNC(=N)N)C(=O)N2CC[C@@H](C)C[C@@H]2C(=O)O)C1 (stereo partly shown) [Argatroban] |  | elimination half-life [1]: 40 min
 |  | CCCCN(C)C(=O)[C@H](Cc1ccc(C(=N)NN)cc1)NS(=O)(=O)c1ccc2ccccc2c1 [Example 2, (S)-N-butyl-N-methyl-3-(4-amidrazonophenyl)-2-(2-naphthylsulfonylamino)propionamide] | 41 | 
 |  | CCCN(C(=O)[C@H](Cc1ccc(C(=N)NN)cc1)NS(=O)(=O)c1ccc2ccccc2c1)C1CCCC1 [Example 3, (S)-N-cyclopentyl-N-propyl-3-(4-amidrazonophenyl)-2-(2-naphthylsulfonylamino)propionamide] | 93 | 
 |  | CCCCN(C(=O)[C@H](Cc1ccc(C(=N)NN)cc1)NS(=O)(=O)c1ccc2ccccc2c1)C1CCCC1 [Example 5, (S)-N-cyclopentyl-N-butyl-3-(4-amidrazonophenyl)-2-(2-naphthylsulfonylamino)propionamide] | 231 | 
 |  | N=C(NN)c1ccc(C[C@H](NS(=O)(=O)c2ccc3ccccc3c2)C(=O)N(O)C2CCCC2)cc1 [Example 10, (S)-N-cyclopentyl-N-hydroxy-3-(4-amidrazonophenyl)-2-(2-naphthylsulfonylamino)propionamide] | 367 | 
 |  | CN(C(=O)[C@H](Cc1ccc(C(=N)NN)cc1)NS(=O)(=O)c1ccc2ccccc2c1)C1CCCCC1 [Example 15, (S)-N-cyclohexyl-N-methyl-3-(4-amidrazonophenyl)-2-(2-naphthylsulfonylamino)propionamide] | 152 | 
 |  | CN(C(=O)[C@H](Cc1ccc(C(=N)NN)cc1)NS(=O)(=O)c1ccc2ccccc2c1)C1CC1 [Example 16, (S)-N-cyclopropyl-N-methyl-3-(4-amidrazonophenyl)-2-(2-naphthylsulfonylamino)propionamide] | 247 | 
5250 | 5.3 | COc1cccc2c(S(=O)(=O)N[C@@H](Cc3ccc(C(=N)NN)cc3)C(=O)N(C)C3CCCC3)cccc12 [Example 19, (S)-3-[4-(amidrazono)-phenyl]-N-cyclopentyl-N-methyl-2-(5-methoxy-naphthalene-1-sulfonylamino)-propionamide] |  | 
2300 | 21.7 | COc1cc2ccc(S(=O)(=O)N[C@@H](Cc3ccc(C(=N)NN)cc3)C(=O)N(C)C3CCCC3)cc2cc1OC [Example 20, (S)-3-[4-(amidrazono)-phenyl]-N-cyclopentyl-N-methyl-2-(6,7-dimethoxy-naphthalene-2-sulfonylamino)-propionamide] |  | 
> 100000 | 25 | CNC(=N)c1ccc(C[C@H](NS(=O)(=O)c2cccc3c(N(C)C)cccc23)C(=O)N(C)C2CCCC2)cc1 [Example 21, (S)-3-[4-(methylamidino)-phenyl]-N-cyclopentyl-N-methyl-2-(5-dimethylamino-naphthalene-1-sulfonylamino)-propionamide] |  | 
21700 | 2590 | CN(C(=O)[C@H](Cc1ccc(C(=N)NN)cc1)NC(=O)COc1cccc2ccccc12)C1CCCC1 [Example 23, (S)-3-[4-(amidrazono)-phenyl]-N-cyclopentyl-N-methyl-2-[2-(naphthalen-1-yl-oxy)acetylamino]-propionamide] |  | 
5790 | 11 | CS(=O)(=O)N1CCN(C(=O)[C@H](Cc2ccc(C(=N)NN)cc2)NS(=O)(=O)c2ccc3ccccc3c2)CC1 [Example 50, (S)-naphthalene-2-sulfonic acid [1-(4-amidrazono)benzyl-2-(4-methylsulfonyl-piperazinyl)-2-oxoethyl]amide] |  | 
 |  | N=C(N)c1ccc(CC(NC(=O)CNS(=O)(=O)c2ccc3ccccc3c2)C(=O)N2CCCCC2)cc1 (stereo not shown) [NAPAP] |  | thrombin inhibitory activity relative to activity for trypsin (selectivity) ([5]; literature): 50 times
 |  | N=C(N)N1CCC[C@@H](CNC(=O)C[C@H](NS(=O)(=O)c2ccc3ccccc3c2)C(=O)N(CC(=O)O)C2CC2)C1 [Ro 46-6240] |  | possibility for oral administration ([6]; oral): does not show any possibility for oral administration; half-life in blood [6]: short half-life in blood; selectivity for thrombin over trypsin ([5]; literature (J. Med. Chem. 1994, 37, 3889-3901)): improved selectivity for thrombin over trypsin
 |  | Gly-Pro-Arg-4-nitroanilide acetate [Chromozym TH, reference compound] |  | Km ([2]; substrate of thrombin, constant enzyme concentration): 8.3 µM
